The source of these data is ChEMBL document CHEMBL4257554, “On the inhibition of capsaicin response in dorsal root ganglion neurons by nobilamide B and analogues: a structure-activity relationship study” (Medchemcomm, 2018).

Non-standard residues stand in square brackets, D forms with d. Residues, ends and D or L forms follow the SMILES beside them. *: point of attachment. d(aThr) = C[C@@H](O)[C@@H](N)C(=O)O; Dhb = C/C=C(\N)C(=O)O; Propionyl = CCC(=O)*

Chain of Transient receptor potential cation channel subfamily V member 1 (Mus musculus) (Q704Y3 whole entry): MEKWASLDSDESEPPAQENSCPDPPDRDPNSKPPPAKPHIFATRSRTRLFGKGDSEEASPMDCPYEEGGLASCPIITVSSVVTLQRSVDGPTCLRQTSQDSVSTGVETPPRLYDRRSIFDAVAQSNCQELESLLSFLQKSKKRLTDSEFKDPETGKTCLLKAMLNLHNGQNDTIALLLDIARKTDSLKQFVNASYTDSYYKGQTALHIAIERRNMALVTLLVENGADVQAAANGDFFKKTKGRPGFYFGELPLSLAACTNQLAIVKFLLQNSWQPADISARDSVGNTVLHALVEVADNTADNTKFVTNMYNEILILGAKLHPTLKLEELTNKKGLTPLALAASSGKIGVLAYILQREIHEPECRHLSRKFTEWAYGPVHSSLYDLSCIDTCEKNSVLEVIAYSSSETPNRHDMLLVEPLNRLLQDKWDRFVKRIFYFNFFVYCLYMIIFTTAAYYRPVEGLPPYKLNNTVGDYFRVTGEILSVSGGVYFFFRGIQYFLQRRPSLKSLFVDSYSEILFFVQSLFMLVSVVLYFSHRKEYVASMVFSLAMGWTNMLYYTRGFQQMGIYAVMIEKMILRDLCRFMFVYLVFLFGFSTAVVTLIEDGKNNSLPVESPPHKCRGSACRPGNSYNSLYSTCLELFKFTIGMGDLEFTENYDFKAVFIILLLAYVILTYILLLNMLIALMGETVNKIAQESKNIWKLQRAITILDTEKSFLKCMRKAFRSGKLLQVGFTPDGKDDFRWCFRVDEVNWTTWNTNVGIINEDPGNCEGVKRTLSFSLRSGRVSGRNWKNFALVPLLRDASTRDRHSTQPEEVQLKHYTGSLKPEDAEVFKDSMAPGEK

This assay has as its target Transient receptor potential cation channel subfamily V member 1 (Mus musculus) (UniProt Q704Y3). The experiment in a line: Antagonist activity at TRPV1 channel in mouse DRG neurons assessed as inhibition of capsaicin-induced calcium accumulation at 300 uM incubated for 6 mins by Fura-2-AM dye based fluorescence assay relative to control.
Usually inhibition stands for the percentage by which the read-out fell short of the control. Turning to `C/C=C(\NC(=O)[C@H](C)NC(=O)[C@@H](NC(=O)[C@H](C)NC(=O)[C@H](Cc1ccccc1)NC(=O)[C@@H](CC(C)C)NC(=O)[C@@H](Cc1ccccc1)NC(=O)CC)C(C)C)C(=O)O`, the inhibition is 5.38%.

For `C/C=C(\NC(=O)[C@H](C)NC(=O)[C@@H](NC(=O)[C@H](NC(=O)[C@H](C)NC(=O)[C@@H](CC(C)C)NC(=O)[C@@H](Cc1ccccc1)NC(=O)CC)[C@@H](C)O)C(C)C)C(=O)O`, the inhibition came out at 23.5%.

Consider `C/C=C(\NC(=O)[C@H](C)NC(=O)[C@H](C)NC(=O)[C@H](NC(=O)[C@H](Cc1ccccc1)NC(=O)[C@@H](CC(C)C)NC(=O)[C@@H](Cc1ccccc1)NC(=O)CC)[C@@H](C)O)C(=O)O`, for which the inhibition worked out at 27.8%.

As to `C/C=C(\NC(=O)[C@H](C)NC(=O)[C@@H](NC(=O)[C@H](NC(=O)[C@H](Cc1ccccc1)NC(=O)[C@@H](CC(C)C)NC(=O)[C@H](C)NC(=O)CC)[C@@H](C)O)C(C)C)C(=O)O`, the inhibition stood at 6.47%.

Take `C/C=C(\NC(=O)[C@H](C)NC(=O)[C@@H](NC(=O)[C@H](NC(=O)[C@H](Cc1ccccc1)NC(=O)[C@H](C)NC(=O)[C@@H](Cc1ccccc1)NC(=O)CC)[C@@H](C)O)C(C)C)C(=O)O`: the inhibition is 3.27%.

Take `CCC(=O)N[C@H](Cc1ccccc1)C(=O)N[C@H](CC(C)C)C(=O)N[C@@H](Cc1ccccc1)C(=O)N[C@@H](C(=O)N[C@H](C(=O)N[C@@H](C)C(=O)N[C@@H](C)C(=O)O)C(C)C)[C@@H](C)O`: the inhibition was 35.6%.

As to `C/C=C(\NC(=O)[C@H](C)NC(=O)[C@@H](NC(=O)[C@H](NC(=O)[C@H](Cc1ccccc1)NC(=O)[C@@H](CC(C)C)NC(=O)[C@@H](Cc1ccccc1)NC(=O)CC)[C@@H](C)O)C(C)C)C(=O)O` (Propionyl-[dF][dL]F[d(aThr)]VA[Dhb]-OH), the inhibition was 33.6%.
